The results in this text go back to patent US12653901B2, “Anti-EDB antibodies and antibody-drug conjugates” (Pfizer Inc., priority 2016, dated 2026).

Entries after “also recorded” stand apart in the source; their conditions may differ. Read-outs that look alike come from different tables or passages of the source. Where a SMILES comes first, the peptide text is derived from it. [ ]: non-standard residue; d: D form. The star is where a group is joined. Dolaproine = CO[C@@H]([C@@H]1CCCN1)[C@@H](C)C(=O)O; Dil = CC[C@H](C)[C@H](NC)[C@@H](CC(=O)O)OC; Doe = c1ccc(C[C@H](N*)c2nccs2)cc1; Aib = CC(C)(N)C(=O)O

The subject of assay [1] is WI38-VA13 cells. Put plainly: In vitro cytotoxicity, WI38-VA13. Format: cell-based, human. The conditions noted are these: for IC50: Homo sapiens. The method, then: (§1) Proliferating WI38-VA13 or HT29 cells were harvested from culture flasks with non-enzymatic cell dissociation buffer and cultured overnight in 96-well plates (Corning) at 1000 cells/well in a humidified chamber (37° C., 5% CO2). The next day, cells were treated with EDB ADCs or isotype control non-EDB-binding ADCs by adding 50 μl of 3× stocks in duplicate at 10 concentrations. In some experiments, cells were plated at 1500 cells/well and treated the same day. Cells were then incubated with EDB ADCs or isotype control non-EDB-binding ADCs for four days. On harvest day, 50 μl of Cell Titer Glo (Promega) was added to the cells and incubated 0.5 hours at room temperature. Luminescence was measured on a Victor plate reader (Perkin Elmer, Waltham, MA). Relative cell viability was determined as a percentage of untreated control wells. IC50 values were calculated using four-parameter logistic model #203 with XLfit v4.2 (IDBS).

The subject of assay [2] is HT29 cells. Put plainly: In vitro cytotoxicity, HT29. It counts as cell-based, human. The settings on record: for IC50: Homo sapiens; for Avg IC50: HT29 (EDB+ FN negative), four days, ng/ml of antibody. How it is done: as §1
The test system of assay [3] is PDX-NSX-11122. Put plainly: In vivo efficacy, PDX-NSX-11122 NSCLC PDX. Also noted: species or system mouse. The source says: (§2) To generate PDX models, tumors were collected from donor animals and tumor fragments approximately 3×3 mm were implanted subcutaneously into the flank of female athymic nude mice (for PDX-NSX-11122 model) or NOD SCID mice (for PDX-PAX-13565 and PDX-PAX-12534 models) by using a 10 gage trocar. When average tumor volume reached approximately 160 to 260 mm^3 the mice were randomized into treatment groups, with 7-10 mice in each group. ADCs or vehicle (PBS) dosing regime and administration route as well as tumor measurement procedures are the same as described above for CLX models. […] Tumor growth inhibition is plotted as an average of tumor size±SEM.

In assay [4] the test system is H-1975. Put plainly: In vivo efficacy, H-1975 NSCLC CLX. The settings on record: intravenous, once every 4 days, doses as in value. Further details: species or system mouse. An excerpt: (§3) To generate CLX models, 8×10^6 to 10×10^6 cells of H-1975, HT29, or Ramos tumor lines were implanted into female athymic nude mice subcutaneously. Ramos and H-1975 cells for inoculation were suspended in 50% and 100% […]® (BD Biosciences, biological call culture substrate), respectively. For the Ramos model, the animals received whole body irradiation (4 Gy) before cell inoculation to facilitate the establishment of tumors. When the average tumor volume reached approximately 160 to 320 mm^3, the animals were randomized into treatment groups, with 8-10 mice in each group. ADCs or vehicle (PBS) were administered intravenously on day 0 and then the animals were dosed once every 4 days for 4 to 8 doses. Tumors were measured once or twice weekly and tumor volume was calculated as volume (mm^3)[…](width×width×length)/2.

Assay [5] concerns HT29. Put plainly: In vivo efficacy, HT29 colon CLX. Also noted: species or system mouse. The conditions noted are these: 3 mg/kg.
From the text: as §3

For assay [6], the system named is PDX-PAX-13565. Put plainly: In vivo efficacy, PDX-PAX-13565 pancreatic PDX. Also noted: species or system mouse. The conditions noted are these: 0.3, 1 and 3 mg/kg.
From the text: as §2

Assay [7] deals with PDX-PAX-12534. In words: In vivo efficacy, PDX-PAX-12534 pancreatic PDX. The settings on record: 0.3, 1 and 3 mg/kg. Also noted: species or system mouse.
From the text: as §2

Assay [8] has as its system Ramos. Put plainly: In vivo efficacy, Ramos lymphoma CLX. The settings on record: 1 and 3 mg/kg. Also noted: species or system mouse.
From the text: as §3

Assay [9] has as its system EMT6 syngeneic tumors. In words: Immune response in treated EMT6 syngeneic tumors. Format: in vivo, mouse.
The target of assay [10] is recombinant cynomolgus monkey 7-EDB-89. In words: SPR binding kinetics to cynomolgus monkey 7-EDB-89. The method, then:
Binding is detected by surface SPR of laser light refracting from the surface. Analysis of the signal kinetics on-rate (ka) and off-rate (kd), allows the discrimination between non-specific and specific interactions.
The running and sample buffer used was HBS-EP+ buffer (0.01M HEPES, 0.15M NaCl, 3 mM EDTA, and 0.05% v/v surfactant P20 pH7.4). […] All SPR assays were performed at 25° C. with a data collection rate of 1 Hz using a BIACORE® (Cytiva; surface plasmon resonance (SPR) system) T200 instrument (GE Healthcare). The resulting sensorgrams were double referenced (Myszka, D. G., J. Mol. Recognit., 12:279-284, 1999) using both a control surface and buffer injections. The rate constants were determined by fitting the data to a 1:1 Langmuir model with BIACORE® (Cytiva; surface plasmon resonance (SPR) system) T200 evaluation software v2.0 and the equation KD=kd/ka. Each experiment was run in duplicate and the average KD was determined.

Where [11] appears, read: WI-38 VA13, unconjugated payload, WI38-VA13, read-out: Avg IC50.
Setting [12] is: HT-29, unconjugated payload, HT29, read-out: Avg IC50.

Chain of recombinant cynomolgus monkey 7-EDB-89 (as listed by the source): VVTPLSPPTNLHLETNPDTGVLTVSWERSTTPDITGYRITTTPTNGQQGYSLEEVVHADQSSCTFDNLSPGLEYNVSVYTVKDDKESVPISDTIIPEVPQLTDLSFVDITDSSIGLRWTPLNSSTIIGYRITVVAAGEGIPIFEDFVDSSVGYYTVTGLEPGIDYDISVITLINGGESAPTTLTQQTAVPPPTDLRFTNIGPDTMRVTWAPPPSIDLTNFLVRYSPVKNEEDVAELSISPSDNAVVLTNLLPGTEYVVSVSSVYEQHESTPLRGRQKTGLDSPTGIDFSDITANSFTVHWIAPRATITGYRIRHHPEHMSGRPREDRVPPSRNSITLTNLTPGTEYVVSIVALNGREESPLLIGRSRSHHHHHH

On to `CC[C@H](C)[C@@H]([C@@H](CC(=O)N1CCC[C@H]1[C@H](OC)[C@@H](C)C(=O)N[C@@H](Cc1ccccc1)c1nccs1)OC)N(C)C(=O)[C@@H](NC(=O)C(C)(C)N)C(C)C` [Payload-0101] (H-[Aib]V[Dil][Dolaproine]-Doe), for which the 50% inhibitory concentration (IC50) was 392 pM in assay [1] (WI-38 VA13, read-out: Avg IC50) and 90 pM in [2] (HT-29, read-out: Avg IC50).
Take `Cc1c[nH]c2c1[C@@]13C[C@@H]1CN(C(=O)C14CC5(C(=O)N6C[C@H]7C[C@@]78C6=CC(=O)c6[nH]cc(C)c68)CC15C4)C3=CC2=O` (stereo partly drawn) [Payload-0326]: the IC50 is below 1 pM in assay [1] (WI-38 VA13, read-out: Avg IC50) and 49 pM in assay [2] (HT-29, read-out: Avg IC50).
On to `CC[C@H](C)[C@@H]([C@@H](CC(=O)N1CCC[C@H]1[C@H](OC)[C@@H](C)C(=O)N[C@@H](Cc1ccc(N)cc1)c1nccs1)OC)N(C)C(=O)[C@@H](NC(=O)C(C)(C)N(C)C)C(C)C` [Payload-1569], for which the half-maximal inhibitory concentration (IC50) was determined as 269 pM in assay [1] (setting [11]) and 74 pM in assay [2] (setting [12]).
Take `CC[C@H](C)[C@@H]([C@@H](CC(=O)N1CCC[C@H]1[C@H](OC)[C@@H](C)C(=O)N[C@@H](Cc1ccc(CS)cc1)c1nccs1)OC)N(C)C(=O)[C@@H](NC(=O)C(C)(C)N(C)C)C(C)C` [Payload-4574]: the IC50 is 3540 pM in assay [1] (WI-38 VA13, read-out: Avg IC50) and 3650 pM in assay [2] (HT-29, read-out: Avg IC50).
For the molecule `CC[C@H](C)[C@@H]([C@@H](CC(=O)N1CCC[C@H]1[C@H](OC)[C@@H](C)C(=O)N[C@@H](Cc1ccc(N)cc1)c1nccs1)OC)N(C)C(=O)[C@@H](NC(=O)[C@]1(C)CCCN1C)C(C)C` [Payload-9411], the half-maximal inhibitory concentration (IC50) in assay [1] (setting [11]) was 519 pM; in assay [2] (setting [12]), 197 pM.
`COc1cc2cc(c1Cl)N(C)C(=O)C[C@H](OC(=O)[C@H](C)N(C)C(=O)CCS)[C@]1(C)O[C@H]1[C@H](C)[C@@H]1C[C@@](O)(NC(=O)O1)[C@H](OC)/C=C/C=C(\C)C2` [Payload-DM1, mertansine, reference compound]: the IC50 in [1] (WI-38 VA13, read-out: Avg IC50) is 3060 pM; in [2] (HT-29, read-out: Avg IC50), 2630 pM.
“ADC1: EDB-L19 antibody conventionally conjugated via cysteine residues to auristatin 0101 with vc linker”: the “Avg IC50” value in assay [2] was 15,346 ng/ml. In addition, the anti-tumor activity entry in assay [3] (1 mg/kg) is “delayed tumor growth”; in assay [3] (3 mg/kg), “complete regressions”; in assay [3] (intravenous, once every 4 days, doses as in value, listed as EDB-L19-vc-0101), “tumor regression in a dose dependent manner at 3 mg/kg and 1.5 mg/kg; also recorded: greater efficacy as compared to isotype negative control ADCs and ADCs that were generated using a disulfide linker”; in assay [4] (listed as EDB-L19-vc-0101), “tumor regression in a dose dependent manner at 3 mg/kg, and at as low as 1.5 mg/kg; also recorded: tumor regression at the highest doses evaluated”; in assay [5], “tumor regression at the 3 mg/kg dose over time”; in assay [8] it was “tumor regression at the 3 mg/kg dose in a dose dependent manner”. Further, the anti-tumor efficacy result in assay [6] and in assay [7] was “tumor regression in a dose dependent manner” in each case. Moreover, the “expression of PDL1” value in assay [9] (treated tumors) is on record as “increased expression of PDL1”. Further, the “infiltration of CD3+ T cells” value in [9] (treated tumors vs. vehicle controls) was “Increased infiltration of CD3+ T cells”.
For “ADC5: EDB-L19 antibody conjugated to DM1 with disulfide (diS) linker”, the “Avg IC50” value in assay [1] (WI38-VA13 (EDB+ FN positive), four days, ng/ml of antibody) worked out at 0.268 µg/mL; in assay [2], 237 ng/mL.
For the molecule “ADC10: EDB-L19 antibody conjugated to auristatin 1569 with vc linker”, in [2], the “Avg IC50” value is 5,702 ng/ml. In addition, the anti-tumor activity result in [4] is recorded as “tumor regression in a dose dependent manner”.
Consider “Ab1: L19 human monoclonal IgG1 antibody binding EDB; HC SEQ ID NO: 8, LC SEQ ID NO: 15”, for which, in [10], the Kd amounted to 188000 pM, the ka is 560000 M⁻¹ s⁻¹ and the kd was 0.105 s⁻¹.
